In patent US20040152904A1, “Delta1 pyrrolines” (priority 2001, published 2004):

tested on: larvae of the mustard beetle (Phaedon cochleariae); assay: Phaedon larvae test; type: in vivo; details: 1000 ppm active compound, cabbage leaves dipped
Description: (§1) Phaedon larvae Test Solvent: 30 parts by weight of dimethylformamide Emulsifier: 1 part by weight of alkylaryl polyglycol ether To produce a suitable preparation of active compound, 1 part by weight of active compound is mixed with the stated amounts of solvent and emulsifier, and the concentrate is diluted with emulsifier-containing water to the desired concentration. Cabbage leaves (Brassica oleracea) are treated by being dipped into the preparation of active compound of the desired concentration and are populated with larvae of the mustard beetle (Phaedon cochleariae) whilst the leaves are still moist. After the desired period of time, the kill in % is determined. 100% means that all beetle larvae have been killed; 0% means that none of the beetle larvae have been killed.

Row | Structure (SMILES) | Kill rate in % after 7d
1 | CC(C)(C)n1nnc(-c2ccc(-c3ccc(C4CCC(c5c(F)cccc5F)=N4)cc3)cc2)n1 (stereo not shown) [drawing 56] | 100%
2 | CCCn1nnc(-c2ccc(C3CCC(c4c(F)cccc4F)=N3)cc2)n1 (stereo not shown) [drawing 57] | 100%
3 | CCn1nnc(-c2ccc(-c3ccc(C4CCC(c5c(F)cccc5F)=N4)cc3)cc2)n1 (stereo not shown) [drawing 58] | 100%
4 | CCOCn1nnc(-c2ccc(-c3ccc(C4CCC(c5c(F)cccc5F)=N4)cc3)cc2)n1 (stereo not shown) [drawing 59] | 100%

tested on: greenhouse red spider mite (tetranychus urticae); assay: Tetranychus test (OP-resistant/dip treatment); type: in vivo; details: 100 ppm active compound, bean plants dipped
Description: Tetranychus Test (OP-Resistant/Dip Treatment)
Solvent: 30 parts by weight of dimethylformamide
Emulsifier: 1 part by weight of alkylaryl polyglycol ether
To produce a suitable preparation of active compound, 1 part by weight of active compound is mixed with the stated amounts of solvent and emulsifier, and the. concentrate is diluted with emulsifier-containing water to the. desired concentration.
Bean plants (Phaseolus vulgaris) which are heavily infested by all stages of the greenhouse red spider mite (tetranychus urticae) are dipped into a preparation of active compound of the desired concentration.
After the desired period of time, the effect in % is determined. 100% means that all spider mites have been killed; 0% means that none of the spider mites have been killed.

Row | Structure (SMILES) | Kill rate in % after 7d
5 | CC(C)(C)n1nnc(-c2ccc(-c3ccc(C4CCC(c5c(F)cccc5F)=N4)cc3)cc2)n1 (stereo not shown) [drawing 67] | 98%
6 | CCCn1nnc(-c2ccc(C3CCC(c4c(F)cccc4F)=N3)cc2)n1 (stereo not shown) [drawing 68] | 90%
7 | CCn1nnc(-c2ccc(-c3ccc(C4CCC(c5c(F)cccc5F)=N4)cc3)cc2)n1 (stereo not shown) [drawing 69] | 98%
8 | CCOCn1nnc(-c2ccc(-c3ccc(C4CCC(c5c(F)cccc5F)=N4)cc3)cc2)n1 (stereo not shown) [drawing 70] | 98%

tested on: Amblyomma variegatum or A. hebraeum, nymphs which have sucked themselves full; assay: Nymphecdysis test on polyphagous ticks; type: in vivo; details: 100 ppm active compound; nymphs immersed for 1 minute
Description: Nymphecdysis Test on Polyphagous Ticks
Test animals: Amblyomma variegatum or A. hebraeum, nymphs which have sucked themselves full
Solvent: Dimethyl sulphoxide
20 mg of active compound are dissolved in 1 ml of dimethyl sulphoxide, more dilute concentrations are prepared by dilution with distilled water.
10 nymphs which have sucked themselves full are immersed for 1 minute into the preparation of active compound to be tested. The animals are transferred to petri dishes (∅ 9.5 cm) fitted with filter discs and covered. […]
100% means that none of the animals have undergone normal ecdysis. 0% means that all animals have undergone ecdysis.
In this test, for example, the compounds 4 and 5 of the preparation examples show good activity.

Row | Structure (SMILES) | Effect on ecdysis in % after 48h
9 | CCn1nnc(-c2ccc(-c3ccc(C4CCC(c5c(F)cccc5F)=N4)cc3)cc2)n1 (stereo not shown) [drawing 73] | 100%
10 | CCOCn1nnc(-c2ccc(-c3ccc(C4CCC(c5c(F)cccc5F)=N4)cc3)cc2)n1 (stereo not shown) [drawing 74] | 100%

same assay, conditions: in vivo

Row | Structure (SMILES) | activity in the nymphecdysis test
11 | CCOCn1nnc(-c2ccc(-c3ccc(C4CCC(c5c(F)cccc5F)=N4)cc3)cc2)n1 (stereo not shown) [Example 4, 5-{4′-[5-(2,6-difluorophenyl)-3,4-dihydro-2H-pyrrol-2-yl]-1,1′-biphenyl-4-yl}-2-(ethoxymethyl)-2H-tetrazole] | good activity
12 | CCn1nnc(-c2ccc(-c3ccc(C4CCC(c5c(F)cccc5F)=N4)cc3)cc2)n1 (stereo not shown) [Example 5, 5-{4′-[5-(2,6-difluorophenyl)-3,4-dihydro-2Hpyrrol-2-yl]-1,1′-biphenyl-4-yl}-2-ethyl-2H-tetrazole] | good activity

tested on: not given; assay: not given; details: not given

Row | Structure (SMILES) | melting point
13 | CC(C)(C)n1nnc(-c2ccc(-c3ccc(C4CCC(c5c(F)cccc5F)=N4)cc3)cc2)n1 (stereo not shown) [Example 2, 2-tert-butyl-5-{4′-[5-(2,6-difluorophenyl)-3,4dihydro-2H-pyrrol-2-yl]-1,1′-biphenyl-4-yl}-2H-tetrazole] | 96 °C
14 | N#Cc1ccc(C2CCC(c3c(F)cccc3F)=N2)cc1 (stereo not shown) [VIII-1, 4-[5-(2,6-difluorophenyl)-3,4-dihydro-2Hpyrrol-2-yl]benzonitrile] | 57 °C
15 | N#Cc1ccc(-c2ccc(C3CCC(c4c(F)cccc4F)=N3)cc2)cc1 (stereo not shown) [VIII-2, 4′-[5-(2,6-difluorophenyl)-3,4-dihydro-2H-pyrrol-2-yl]-1,1′-biphenyl-4carbonitrile] | 123 °C
16 | CC(C)(C)OC(=O)N1C(=O)CCC1c1ccc(-c2ccc(C#N)cc2)cc1 (stereo not shown) [XI-2, tert-butyl 2(4′-cyano-1,1′-biphenyl-4-yl)-5-oxo-1-pyrrolidinecarboxylate] | 152 °C
17 | N#Cc1ccc(C2CCC(=O)N2)cc1 (stereo not shown) [XIII-a-1, 4-(5-oxo-2-pyrrolidinyl)benzonitrile] | 155 °C

tested on: army worm (Spodoptera exigua) caterpillars; assay: Spodoptera exigua test; type: in vivo; details: 8 ppm active compound, cabbage leaves dipped
Description: as §1, with “Spodoptera exigua” for “Phaedon larvae”, “7” for “30”, “army worm (Spodoptera exigua) caterpillars” for “larvae of the mustard beetle (Phaedon cochleariae)”, “caterpillars” for “beetle larvae”

Row | Structure (SMILES) | Kill rate in % after 6d
18 | CC(C)(C)n1nnc(-c2ccc(-c3ccc(C4CCC(c5c(F)cccc5F)=N4)cc3)cc2)n1 (stereo not shown) [drawing 61] | 100%

same assay, conditions: 40 ppm active compound, cabbage leaves dipped

Row | Structure (SMILES) | Kill rate in % after 6d
19 | CCn1nnc(-c2ccc(-c3ccc(C4CCC(c5c(F)cccc5F)=N4)cc3)cc2)n1 (stereo not shown) [drawing 62] | 100%

tested on: Heliothis virescens caterpillars; assay: Heliothis virescens test; type: in vivo; details: 40 ppm active compound, soyabean shoots dipped
Description: as §1, with “Heliothis virescens” for “Phaedon larvae”, “Soyabean shoots (Glycine max)” for “Cabbage leaves (Brassica oleracea)”, “Heliothis virescens caterpillars” for “larvae of the mustard beetle (Phaedon cochleariae)”, “caterpillars” for “beetle larvae”

Row | Structure (SMILES) | Kill rate in % after 6d
20 | CC(C)(C)n1nnc(-c2ccc(-c3ccc(C4CCC(c5c(F)cccc5F)=N4)cc3)cc2)n1 (stereo not shown) [drawing 54] | 100%
21 | CCn1nnc(-c2ccc(-c3ccc(C4CCC(c5c(F)cccc5F)=N4)cc3)cc2)n1 (stereo not shown) [drawing 55] | 100%

tested on: not listed separately; assay: logP by HPLC (EEC Directive 79/831 Annex V.A8, reversed-phase C 18); type: physicochemical; details: reversed-phase HPLC column (C 18), pH 2.3, 0.1% aqueous phosphoric acid / acetonitrile, 43° C., read-out: logP (pH 2.3)
Description: The stated logP values were determined in accordance with EEC Directive 79/831 Annex V.A8 by HPLC (High Performance Liquid Chromatography) using a reversed-phase column (C 18). Temperature: 43° C.
In the acidic range, the determination was carried out at pH 2.3 using the mobile phases 0.1% aqueous phosphoric acid and acetonitrile; linear gradient from 10% acetonitrile to 90% acetonitrile.
In the neutral range, the determination was carried out at pH 7.5 using the mobile phases 0.01 molar aqueous phosphate buffer solution and acetonitrile; linear gradient from 10% acetonitrile to 90% acetonitrile.
Calibration was carried out using unbranched alkan-2-ones (having 3 to 16 carbon atoms) with known logP values (determination of the logP values by the retention times using linear interpolation between two successive alkanones).

Row | Structure (SMILES) | chromatographic logP
22 | N#Cc1ccc(-c2ccccc2C2CCC(=O)N2)cc1 (stereo not shown) [2′-(5-oxo-2-pyrrolidinyl)-1,1′-biphenyl-4carbonitrile] | 1.94
23 | CCCn1nnc(-c2ccc(C3CCC(c4c(F)cccc4F)=N3)cc2)n1 (stereo not shown) [Example 1] | 2.61
24 | CC(C)(C)n1nnc(-c2ccc(-c3ccc(C4CCC(c5c(F)cccc5F)=N4)cc3)cc2)n1 (stereo not shown) [Example 2, 2-tert-butyl-5-{4′-[5-(2,6-difluorophenyl)-3,4dihydro-2H-pyrrol-2-yl]-1,1′-biphenyl-4-yl}-2H-tetrazole] | 4.14
25 | CCn1nnc(-c2ccc(-c3ccc(C4CCC(c5c(F)cccc5F)=N4)cc3)cc2)n1 (stereo not shown) [Example 5, 5-{4′-[5-(2,6-difluorophenyl)-3,4-dihydro-2Hpyrrol-2-yl]-1,1′-biphenyl-4-yl}-2-ethyl-2H-tetrazole] | 3.21
26 | CC(C)(C)n1nnc(-c2ccc(B(O)O)cc2)n1 [Example V-1, 4-[(2-tert-butyl)-2H-tetrazol-5-yl]phenylboronic acid] | 2.01
27 | OB(O)c1ccc(-c2nn[nH]n2)cc1 [Example V-2, 4-(2H-tetrazol-5-yl)-phenylboronic acid] | 0.19
28 | Fc1cccc(F)c1C1=NC(c2ccc(-c3nn[nH]n3)cc2)CC1 (stereo not shown) [I-a-1] | 1.28
29 | CC(C)(C)n1nnc(-c2ccc(Br)cc2)n1 [VII-1, 2-tert-butyl-5-(4-bromo-phenyl)-1(2)H-tetrazole] | 4.23
30 | CCOCn1nnc(-c2ccc(Br)cc2)n1 [VII-2, 2-ethoxymethyl-5-(4-bromo-phcnyl)-1(2)H tetrazole] | 3.42
31 | CCn1nnc(-c2ccc(Br)cc2)n1 [VII-3, 2-ethyl-5-(4-bromo-phenyl)-1(2)H-tetrazole] | 3.2
32 | N#Cc1ccc(C2CCC(c3c(F)cccc3F)=N2)cc1 (stereo not shown) [VIII-1, 4-[5-(2,6-difluorophenyl)-3,4-dihydro-2Hpyrrol-2-yl]benzonitrile] | 2.11
33 | N#Cc1ccc(-c2ccc(C3CCC(c4c(F)cccc4F)=N3)cc2)cc1 (stereo not shown) [VIII-2, 4′-[5-(2,6-difluorophenyl)-3,4-dihydro-2H-pyrrol-2-yl]-1,1′-biphenyl-4carbonitrile] | 2.84
34 | CC(C)(C)OC(=O)N1C(=O)CCC1c1ccc(C#N)cc1 (stereo not shown) [XI-1, tert-butyl-2-(4-cyanophenyl)-5-oxo-1-pyrrolidinecarboxylate] | 2.12
35 | CC(C)(C)OC(=O)N1C(=O)CCC1c1ccc(-c2ccc(C#N)cc2)cc1 (stereo not shown) [XI-2, tert-butyl 2(4′-cyano-1,1′-biphenyl-4-yl)-5-oxo-1-pyrrolidinecarboxylate] | 3.03
36 | N#Cc1ccc(C2CCC(=O)N2)cc1 (stereo not shown) [XIII-a-1, 4-(5-oxo-2-pyrrolidinyl)benzonitrile] | 0.96
37 | N#Cc1ccc(-c2ccc(C3CCC(=O)N3)cc2)cc1 (stereo not shown) [XIII-b-1, 4′-(5-oxo-2-pyrrolidinyl)-1,1′-biphenyl-4carbonitrile] | 1.92

same assay, conditions: reversed-phase HPLC column (C 18), pH not printed at the place, read-out: logP

Row | Structure (SMILES) | chromatographic logP
38 | CC(C)(C)n1nnc(-c2ccc(-c3ccc(C4CCC(c5c(F)cccc5F)=N4)cc3)cc2)n1 (stereo not shown) [Example 3, 2-tert-butyl-5-{4′-[5-(2,6-difluorophenyl)-3,4dihydro-2H-pyrrol-2-yl]-1′-biphenyl-4-yl}-2H-tetrazole] | 4.14
39 | CCOCn1nnc(-c2ccc(-c3ccc(C4CCC(c5c(F)cccc5F)=N4)cc3)cc2)n1 (stereo not shown) [Example 4, 5-{4′-[5-(2,6-difluorophenyl)-3,4-dihydro-2H-pyrrol-2-yl]-1,1′-biphenyl-4-yl}-2-(ethoxymethyl)-2H-tetrazole] | 3.4

tested on: army worm (Spodoptera frugiperda) caterpillars; assay: Spodoptera frugiperda test; type: in vivo; details: 1000 ppm active compound, cabbage leaves dipped
Description: as §1, with “Spodoptera frugiperda” for “Phaedon larvae”, “army worm (Spodoptera frugiperda) caterpillars” for “larvae of the mustard beetle (Phaedon cochleariae)”, “caterpillars” for “beetle larvae”

Row | Structure (SMILES) | Kill rate in % after 7d
40 | CC(C)(C)n1nnc(-c2ccc(-c3ccc(C4CCC(c5c(F)cccc5F)=N4)cc3)cc2)n1 (stereo not shown) [drawing 63] | 100%
41 | CCCn1nnc(-c2ccc(C3CCC(c4c(F)cccc4F)=N3)cc2)n1 (stereo not shown) [drawing 64] | 100%
42 | CCn1nnc(-c2ccc(-c3ccc(C4CCC(c5c(F)cccc5F)=N4)cc3)cc2)n1 (stereo not shown) [drawing 65] | 100%
43 | CCOCn1nnc(-c2ccc(-c3ccc(C4CCC(c5c(F)cccc5F)=N4)cc3)cc2)n1 (stereo not shown) [drawing 66] | 100%
